According to patent US20100234390A1, “NOVEL COMPOUND AND THEIR USE” (priority 2007, published 2010):

Key:
Assay in all cases: Agar dilution MIC
Details in all cases: 35° C., 16-20 hours
S. aureus ATCC 29213 = format: cell-based, Staphylococcus aureus
Description: (§1) Briefly, the compounds of invention were weighed, dissolved in dimethyl sulfoxide, serially two fold diluted in the same solvent and then incorporated into molten Mueller Hinton Agar (MHA) in a petridish just before solidification, with each petridish containing a different concentration of a compound.
(§2) The bacterial inoculum was prepared by picking 3 to 5 well isolated bacterial colonies with the same morphological appearance from an 18-24 hours old culture with an inoculating loop, transferring the growth to a tube containing 3 mL of normal saline and adjusting the turbidity of the saline suspension to 0.5 Mc Farland Turbidity Standard equivalent to a bacterial population of 1.5×10^8 colony forming units (CFU) per mL of suspension. The suspension was diluted 1:10 in saline (i.e. 0.5 mL suspension 4.5 mL saline) to get a bacterial population of 1.5×10^7 CFU/mL as inoculum.
(§3) The inoculated petridishes were incubated at 35° C. in an ambient atmosphere for 16-20 hours.

S. aureus ATCC 43300 = format: cell-based, Staphylococcus aureus
Description: as §1, §2, §3

S. aureus MRO 00013 = format: cell-based, Staphylococcus aureus
Description: as §1, §2, §3

S. aureus MRO 0001 = format: cell-based, Staphylococcus aureus
Description: as §1, §2, §3

S. aureus MRO 00030 = format: cell-based, Staphylococcus aureus
Description: as §1, §2, §3

S. aureus MRO 0003 = format: cell-based, Staphylococcus aureus
Description: as §1, §2, §3

S. aureus MRO 00048 = format: cell-based, Staphylococcus aureus
Description: as §1, §2, §3

S. aureus MRO 00055 = format: cell-based, Staphylococcus aureus
Description: as §1, §2, §3

S. aureus MRO 00059 = format: cell-based, Staphylococcus aureus
Description: as §1, §2, §3

S. aureus MRO 002053 = format: cell-based, Staphylococcus aureus
Description: as §1, §2, §3

[1] = tested on: S. epidermidis MRO 002046; format: cell-based
Description: as §1, §2, §3

S. epidermidis MRO 02002 = format: cell-based
Description: as §1, §2, §3

S. epidermidis MRO 02045 = format: cell-based
Description: as §1, §2, §3

S. epidermidis MRO 02095 = format: cell-based
Description: as §1, §2, §3

[2] = tested on: S. haemolyticus MRO 02064; format: cell-based
Description: as §1, §2, §3

[3] = tested on: S. saprophyticus MRO 02003; format: cell-based
Description: as §1, §2, §3

E. faecalis ATCC 29212 = format: cell-based, Enterococcus faecalis
Description: as §1, §2, §3

E. faecalis ATCC 51299 = format: cell-based, Enterococcus faecalis
Description: as §1, §2, §3

E. faecalis MRO 04035 = format: cell-based, Enterococcus faecalis
Description: as §1, §2, §3

E. faecalis MRO 04050 = format: cell-based, Enterococcus faecalis
Description: as §1, §2, §3

E. faecalis MRO 04205 = format: cell-based, Enterococcus faecalis
Description: as §1, §2, §3

E. faecium ATCC 700221 = format: cell-based, Enterococcus faecium
Description: as §1, §2, §3

E. faecium MRO 04037 = format: cell-based, Enterococcus faecium
Description: as §1, §2, §3

E. faecium MRO 04038 = format: cell-based, Enterococcus faecium
Description: as §1, §2, §3

E. faecium MRO 04198 = format: cell-based, Enterococcus faecium
Description: as §1, §2, §3

[4] = tested on: M. catarrhalis ATCC 43617; format: cell-based, Moraxella catarrhalis
Description: as §1, §2, §3

[5] = tested on: M. catarrhalis ATCC 43627; format: cell-based, Moraxella catarrhalis
Description: as §1, §2, §3

[6] = tested on: M. catarrhalis ATCC 43628; format: cell-based, Moraxella catarrhalis
Description: as §1, §2, §3

| Compound | Antimicrobial Screening (MIC) (S. aureus ATCC 29213) | Antimicrobial Screening (MIC) (S. aureus ATCC 43300) | Antimicrobial Screening (MIC) (S. aureus MRO 00013) | Antimicrobial Screening (MIC) (S. aureus MRO 0001) | Antimicrobial Screening (MIC) (S. aureus MRO 00030) | Antimicrobial Screening (MIC) (S. aureus MRO 0003) | Antimicrobial Screening (MIC) (S. aureus MRO 00048) | Antimicrobial Screening (MIC) (S. aureus MRO 00055) | Antimicrobial Screening (MIC) (S. aureus MRO 00059) | Antimicrobial Screening (MIC) (S. aureus MRO 002053) | Antimicrobial Screening (MIC) [1] | Antimicrobial Screening (MIC) (S. epidermidis MRO 02002) | Antimicrobial Screening (MIC) (S. epidermidis MRO 02045) | Antimicrobial Screening (MIC) (S. epidermidis MRO 02095) | Antimicrobial Screening (MIC) [2] | Antimicrobial Screening (MIC) [3] | Antimicrobial Screening (MIC) (E. faecalis ATCC 29212) | Antimicrobial Screening (MIC) (E. faecalis ATCC 51299) | Antimicrobial Screening (MIC) (E. faecalis MRO 04035) | Antimicrobial Screening (MIC) (E. faecalis MRO 04050) | also measured |
| --- | --- | --- | --- | --- | --- | --- | --- | --- | --- | --- | --- | --- | --- | --- | --- | --- | --- | --- | --- | --- | --- |
| COC(=S)NC[C@H]1CN(c2ccc(N3CCN(C(=O)c4cccnc4)CC3)c(F)c2)C(=O)O1 [Example 2, (S)—O-Methyl(3-(3-fluoro-4-(4-nicotinoylpiperazin-1-yl)phenyl)-2-oxooxazolidin-5-yl)methylcarbamothioate] | 1 µg/mL | 1 µg/mL | 1 µg/mL | 0.5 µg/mL | 1 µg/mL | 1 µg/mL | 0.5 µg/mL | 1 µg/mL | 1 µg/mL | 1 µg/mL | 1 µg/mL | 1 µg/mL | 1 µg/mL | 1 µg/mL | 1 µg/mL | 1 µg/mL | 1 µg/mL | 0.5 µg/mL | 0.5 µg/mL | 1 µg/mL | Antimicrobial Screening (MIC) (E. faecalis MRO 04205): 0.5 µg/mL; Antimicrobial Screening (MIC) (E. faecium ATCC 700221): 0.5 µg/mL; Antimicrobial Screening (MIC) (E. faecium MRO 04037): 0.5 µg/mL; Antimicrobial Screening (MIC) (E. faecium MRO 04038): 0.5 µg/mL; Antimicrobial Screening (MIC) (E. faecium MRO 04198): 0.5 µg/mL; Antimicrobial Screening (MIC) [4]: 1 µg/mL; Antimicrobial Screening (MIC) [5]: 4 µg/mL; Antimicrobial Screening (MIC) [6]: 4 µg/mL |
| COC(=S)NC[C@H]1CN(c2ccc(N3CCN(C(=O)c4ccc([N+](=O)[O-])o4)CC3)c(F)c2)C(=O)O1 [Example 7, (S)—O-Methyl(3-(3-fluoro-4-(4-(5-nitrofuran-2-carbonyl)piperazin-1-yl)phenyl)-2-oxooxazolidin-5-yl)methylcarbamothioate] | 0.125 µg/mL | 0.125 µg/mL | 0.25 µg/mL | 0.125 µg/mL | 0.125 µg/mL | 0.25 µg/mL | 0.125 µg/mL | 0.25 µg/mL | 0.25 µg/mL | 0.06 µg/mL | 0.03 µg/mL | 0.03 µg/mL | 0.125 µg/mL | 0.03 µg/mL | 0.125 µg/mL | 0.125 µg/mL | 0.125 µg/mL | 0.125 µg/mL | 0.125 µg/mL | 0.125 µg/mL | Antimicrobial Screening (MIC) (E. faecalis MRO 04205): 0.125 µg/mL; Antimicrobial Screening (MIC) (E. faecium ATCC 700221): 0.125 µg/mL; Antimicrobial Screening (MIC) (E. faecium MRO 04037): 0.25 µg/mL; Antimicrobial Screening (MIC) (E. faecium MRO 04038): 0.125 µg/mL; Antimicrobial Screening (MIC) (E. faecium MRO 04198): 0.25 µg/mL; Antimicrobial Screening (MIC) [4]: 0.25 µg/mL; Antimicrobial Screening (MIC) [5]: 0.25 µg/mL; Antimicrobial Screening (MIC) [6]: 0.25 µg/mL |
| COC(=S)NC[C@H]1CN(c2ccc(N3CCN(C(=O)c4ccc(N)nc4)CC3)c(F)c2)C(=O)O1 [Example 37, (S)—O-Methyl(3-(4-(4-(6-aminonicotinoyl)piperazin-1-yl)-3-fluorophenyl)-2-oxooxazolidin-5-yl)methylcarbamothioate] | 0.5 µg/mL | 0.5 µg/mL | 0.5 µg/mL | 0.25 µg/mL | 0.5 µg/mL | 0.5 µg/mL | 0.25 µg/mL | 0.5 µg/mL | 0.5 µg/mL | 0.25 µg/mL | 0.5 µg/mL | 0.5 µg/mL | 0.25 µg/mL | 0.5 µg/mL | 0.25 µg/mL | 0.5 µg/mL | 0.25 µg/mL | 0.25 µg/mL | 0.25 µg/mL | 0.25 µg/mL | Antimicrobial Screening (MIC) (E. faecalis MRO 04205): 0.25 µg/mL; Antimicrobial Screening (MIC) (E. faecium ATCC 700221): 0.25 µg/mL; Antimicrobial Screening (MIC) (E. faecium MRO 04037): 0.25 µg/mL; Antimicrobial Screening (MIC) (E. faecium MRO 04038): 0.25 µg/mL; Antimicrobial Screening (MIC) (E. faecium MRO 04198): 0.25 µg/mL; Antimicrobial Screening (MIC) [4]: 1 µg/mL; Antimicrobial Screening (MIC) [5]: 2 µg/mL; Antimicrobial Screening (MIC) [6]: 1 µg/mL |
